For 2 compounds, EC50 results are on record in patent publication US8394968B2, “Hepatitis C virus inhibitors” (Bristol-Myers Squibb Company, priority 2009, dated 2013).

pEC50: −log10 of the molar value. Read-outs that look alike come from different tables or passages of the source.

This test has as its system HCV 1b genotype. Description: HCV Replicon assay (HCV-neo replicon cells, wild-type; luciferase reporter variants also used). Type of test: cell-based. Particulars: Hepatitis C virus, HCV 1b genotype replicon. As for the experimental part: An HCV Replicon assay was utilized in the present disclosure, and was prepared, conducted and validated as described in commonly owned PCT/US2006/022197 and in O'Boyle et. al. Antimicrob Agents Chemother. 2005 April; 49(4):1346-53. Assay methods incorporating luciferase reporters have also been used as described (Apath.com).
HCV-neo replicon cells and replicon cells containing mutations in the NS5A region were used to test the currently described family of compounds. The compounds were determined to have more than 10-fold less inhibitory activity on cells containing mutations than wild-type cells. Thus, the compounds of the present disclosure can be effective in inhibiting the function of the HCV NS5A protein and are understood to be as effective in combinations as previously described in application PCT/US2006/022197 and commonly owned WO/04014852. Further, the compounds of the present disclosure can be effective against the HCV 1b genotype. It should also be understood that the compounds of the present disclosure can inhibit multiple genotypes of HCV. […] In one embodiment, compounds of the present disclosure are inhibitory versus 1a, 1b, 2a, 2b, 3a, 4a, and 5a genotypes.
In general terms: A replicon is a self-replicating genome or part of one, used to study replication in cells.

Broadly, the pEC50 is the EC50 on a negative log10 scale, so that one unit is a factor of ten. For the compound `COC(=O)NC(C(=O)N1CCC[C@H]1c1nc2ccc(C#Cc3cccc(-c4[nH]cnc4[C@@H]4CCCN4C(=O)[C@@H](NC(=O)OC)C(C)C)c3)cc2[nH]1)C(C)C` (stereo in doubt) [J.28l, methyl ((1S)-1-(((2S)-2-(5-(3-((2-((2S)-1-((2R)-2-((methoxycarbonyl)amino)-3-methylbutanoyl)-2-pyrrolidinyl)-1H-benzimidazol-5-yl)ethynyl)phenyl)-1H-imidazol-4-yl)-1-pyrrolidinyl)carbonyl)-2-methylpropyl)carbamate], the pEC50 is 7.00 to 8.34 (class symbol, read-out: EC50 Range) and 8.15 (read-out: EC50). On to `COC(=O)NC(C(=O)N1CCC[C@H]1c1nc2ccc(-c3ccc(-c4ccc5c(ccc6[nH]c([C@@H]7CCCN7C(=O)C(NC(=O)OC)c7ccccc7)nc65)c4)cc3)cc2[nH]1)c1ccccc1` (stereo in doubt) [J.27c, methyl ((1R)-2-((2S)-2-(7-(4-(2-((2S)-1-((2R)-2-((methoxycarbonyl)amino)-2-phenylacetyl)-2-pyrrolidinyl)-1H-benzimidazol-5-yl)phenyl)-1H-naphtho[1,2-d]imidazol-2-yl)-1-pyrrolidinyl)-2-oxo-1-phenylethyl)carbamate], for which the pEC50 (read-out: EC50) is 11.52.
